These results are taken from ChEMBL document CHEMBL5465560, “Selectivity Literature for EUbOPEN Chemogenomic Library” (2024).

Assay [1] has as its target Receptor tyrosine-protein kinase erbB-2 (Homo sapiens, UniProt P04626). Kind of assay: Selectivity interaction (Rxn Biology Kinase assay) EUB0001632a ERBB2. To be noted: at 10 µM.
In assay [2] the target is T1, Serine/threonine-protein kinase LATS2 (Homo sapiens) (UniProt Q9NRM7).
T1 sequence (whole entry): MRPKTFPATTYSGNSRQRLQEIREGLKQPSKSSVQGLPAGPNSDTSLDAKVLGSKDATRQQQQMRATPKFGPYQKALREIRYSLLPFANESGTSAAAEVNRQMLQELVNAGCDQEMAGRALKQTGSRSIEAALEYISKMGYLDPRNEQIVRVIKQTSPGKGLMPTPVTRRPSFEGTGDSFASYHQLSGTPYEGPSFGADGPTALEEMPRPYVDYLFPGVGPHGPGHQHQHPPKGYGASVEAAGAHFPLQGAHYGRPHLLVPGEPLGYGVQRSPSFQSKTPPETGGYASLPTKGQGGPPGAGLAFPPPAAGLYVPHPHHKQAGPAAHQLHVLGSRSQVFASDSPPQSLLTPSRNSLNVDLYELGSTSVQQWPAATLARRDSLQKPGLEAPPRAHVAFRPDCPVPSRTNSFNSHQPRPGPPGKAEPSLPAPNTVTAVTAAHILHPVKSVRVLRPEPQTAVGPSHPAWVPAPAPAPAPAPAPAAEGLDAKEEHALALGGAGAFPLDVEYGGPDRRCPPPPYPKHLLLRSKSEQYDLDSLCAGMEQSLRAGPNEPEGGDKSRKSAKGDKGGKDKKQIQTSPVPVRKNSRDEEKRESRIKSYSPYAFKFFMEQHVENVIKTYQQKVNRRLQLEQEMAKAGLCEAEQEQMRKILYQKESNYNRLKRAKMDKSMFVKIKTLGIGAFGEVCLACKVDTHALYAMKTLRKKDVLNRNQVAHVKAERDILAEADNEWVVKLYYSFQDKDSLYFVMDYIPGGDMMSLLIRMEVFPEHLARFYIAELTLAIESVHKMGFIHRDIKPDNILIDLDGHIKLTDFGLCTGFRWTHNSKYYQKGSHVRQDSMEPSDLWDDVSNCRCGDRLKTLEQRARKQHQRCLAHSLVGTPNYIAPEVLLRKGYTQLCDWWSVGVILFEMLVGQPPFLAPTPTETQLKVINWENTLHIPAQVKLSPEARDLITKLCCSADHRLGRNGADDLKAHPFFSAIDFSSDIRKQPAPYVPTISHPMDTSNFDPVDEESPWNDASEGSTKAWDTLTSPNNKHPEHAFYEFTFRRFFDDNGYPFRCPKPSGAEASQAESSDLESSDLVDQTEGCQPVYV
Description: Selectivity interaction (KinomeScan (DiscoverX)) EUB0000666a LATS2. As to conditions: at 10 µM.

The target in assay [3] is Insulin-like growth factor 1 receptor (Homo sapiens, UniProt P08069). Kind of assay: Selectivity interaction (Ambit KINOMEscan and KiNATiv profiling in Jurkat cells) EUB0000090b IGF1R. The format is cell-based. As to conditions: at 1 µM.
Insulin-like growth factor 1 receptor, sequence (P08069 31-736 limits assumed): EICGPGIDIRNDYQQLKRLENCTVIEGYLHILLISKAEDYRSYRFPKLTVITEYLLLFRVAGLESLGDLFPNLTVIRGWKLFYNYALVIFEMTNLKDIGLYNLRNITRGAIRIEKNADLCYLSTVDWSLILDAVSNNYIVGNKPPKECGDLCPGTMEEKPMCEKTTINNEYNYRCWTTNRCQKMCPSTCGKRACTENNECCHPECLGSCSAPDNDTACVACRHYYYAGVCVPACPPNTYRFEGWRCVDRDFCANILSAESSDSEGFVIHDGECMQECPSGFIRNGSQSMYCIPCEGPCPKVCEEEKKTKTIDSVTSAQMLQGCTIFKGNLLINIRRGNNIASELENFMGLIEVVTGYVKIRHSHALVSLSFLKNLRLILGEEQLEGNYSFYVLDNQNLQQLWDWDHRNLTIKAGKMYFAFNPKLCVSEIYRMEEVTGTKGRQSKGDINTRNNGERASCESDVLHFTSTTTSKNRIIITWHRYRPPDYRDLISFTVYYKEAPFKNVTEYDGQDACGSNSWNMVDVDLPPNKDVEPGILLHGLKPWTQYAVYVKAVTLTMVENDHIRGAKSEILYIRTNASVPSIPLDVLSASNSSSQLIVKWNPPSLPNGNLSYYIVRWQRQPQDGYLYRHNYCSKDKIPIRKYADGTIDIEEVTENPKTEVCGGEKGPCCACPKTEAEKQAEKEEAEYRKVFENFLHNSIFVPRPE
Insulin-like growth factor 1 receptor, sequence (P08069 741-1367 limits assumed): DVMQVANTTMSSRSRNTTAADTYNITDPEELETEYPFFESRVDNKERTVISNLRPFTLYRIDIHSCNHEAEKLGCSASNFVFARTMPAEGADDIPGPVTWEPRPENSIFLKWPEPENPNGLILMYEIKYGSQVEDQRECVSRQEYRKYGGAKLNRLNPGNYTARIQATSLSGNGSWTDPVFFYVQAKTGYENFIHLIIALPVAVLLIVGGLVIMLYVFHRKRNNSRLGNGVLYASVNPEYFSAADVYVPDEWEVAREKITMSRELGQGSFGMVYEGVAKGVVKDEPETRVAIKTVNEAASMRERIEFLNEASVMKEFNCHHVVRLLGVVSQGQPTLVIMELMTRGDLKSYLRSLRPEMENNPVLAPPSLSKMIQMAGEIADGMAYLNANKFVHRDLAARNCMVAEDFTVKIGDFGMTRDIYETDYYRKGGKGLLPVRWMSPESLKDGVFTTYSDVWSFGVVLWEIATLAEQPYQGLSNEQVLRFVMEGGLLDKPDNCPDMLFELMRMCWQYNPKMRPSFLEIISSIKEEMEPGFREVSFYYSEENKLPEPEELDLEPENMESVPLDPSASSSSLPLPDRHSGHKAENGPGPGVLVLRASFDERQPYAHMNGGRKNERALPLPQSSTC
Assay [4] has as its target Dual specificity testis-specific protein kinase 1 (Homo sapiens) (UniProt Q15569). Description: Selectivity interaction (KinomeScan (DiscoverX)) EUB0000655a TESK1. To be noted: at 10 µM.
In assay [5] the test system is Proto-oncogene tyrosine-protein kinase receptor Ret (Homo sapiens), P07949 [V804L]. Kind of assay: (§1) Selectivity interaction (KinomeScan (DiscoverX)) EUB0000618a RET. To be noted: at 10 µM.
Proto-oncogene tyrosine-protein kinase receptor Ret (Homo sapiens), P07949 [V804L], sequence (P07949 whole entry V804L): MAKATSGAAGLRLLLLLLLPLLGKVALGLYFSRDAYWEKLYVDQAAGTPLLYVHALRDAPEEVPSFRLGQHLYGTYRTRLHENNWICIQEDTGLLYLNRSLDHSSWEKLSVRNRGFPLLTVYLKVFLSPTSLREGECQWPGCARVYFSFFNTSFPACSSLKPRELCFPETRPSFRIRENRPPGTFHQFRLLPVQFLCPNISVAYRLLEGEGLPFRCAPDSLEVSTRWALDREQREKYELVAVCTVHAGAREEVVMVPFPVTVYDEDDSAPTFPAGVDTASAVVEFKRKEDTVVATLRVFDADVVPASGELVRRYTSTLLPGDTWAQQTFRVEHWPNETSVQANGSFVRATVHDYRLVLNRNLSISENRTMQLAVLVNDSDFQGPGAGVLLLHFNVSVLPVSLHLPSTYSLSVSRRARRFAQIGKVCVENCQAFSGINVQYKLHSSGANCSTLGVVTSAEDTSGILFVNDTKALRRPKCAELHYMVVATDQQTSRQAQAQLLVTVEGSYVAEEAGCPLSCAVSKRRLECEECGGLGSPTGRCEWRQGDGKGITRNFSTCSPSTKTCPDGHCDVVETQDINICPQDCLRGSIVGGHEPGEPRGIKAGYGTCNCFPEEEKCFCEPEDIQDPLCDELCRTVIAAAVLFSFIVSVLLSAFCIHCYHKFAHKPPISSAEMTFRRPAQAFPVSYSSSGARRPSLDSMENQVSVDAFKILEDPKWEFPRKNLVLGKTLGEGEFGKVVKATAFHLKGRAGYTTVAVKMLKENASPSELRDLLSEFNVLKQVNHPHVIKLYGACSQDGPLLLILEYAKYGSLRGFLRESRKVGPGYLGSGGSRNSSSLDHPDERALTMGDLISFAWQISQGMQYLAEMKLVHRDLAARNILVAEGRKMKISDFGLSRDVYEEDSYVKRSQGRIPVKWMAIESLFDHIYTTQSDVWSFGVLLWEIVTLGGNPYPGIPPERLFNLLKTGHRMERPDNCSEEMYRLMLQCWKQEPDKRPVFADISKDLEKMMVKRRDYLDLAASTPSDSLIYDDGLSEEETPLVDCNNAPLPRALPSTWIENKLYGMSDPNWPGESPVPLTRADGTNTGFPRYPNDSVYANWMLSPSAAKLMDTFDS
Assay [6] deals with Proto-oncogene tyrosine-protein kinase receptor Ret (Homo sapiens), P07949 [V804M]. The assay is described as §1. As to conditions: at 10 µM.
Proto-oncogene tyrosine-protein kinase receptor Ret (Homo sapiens), P07949 [V804M], sequence (P07949 whole entry V804M): as the sequence (P07949 whole entry V804L) above, with L804M counted along it
Assay [7] concerns the target Proto-oncogene tyrosine-protein kinase receptor Ret (Homo sapiens, UniProt P07949). Described as §1. As to conditions: at 10 µM.
Assay [8] concerns the target Dual specificity testis-specific protein kinase 1 (Homo sapiens) (UniProt Q15569). Kind of assay: Selectivity interaction (KinomeScan (DiscoverX)) EUB0000618a TESK1. As to conditions: at 10 µM.
For assay [9], the target named is T2, Kinase suppressor of Ras 1 (Homo sapiens) (UniProt Q8IVT5).
T2 sequence (whole entry): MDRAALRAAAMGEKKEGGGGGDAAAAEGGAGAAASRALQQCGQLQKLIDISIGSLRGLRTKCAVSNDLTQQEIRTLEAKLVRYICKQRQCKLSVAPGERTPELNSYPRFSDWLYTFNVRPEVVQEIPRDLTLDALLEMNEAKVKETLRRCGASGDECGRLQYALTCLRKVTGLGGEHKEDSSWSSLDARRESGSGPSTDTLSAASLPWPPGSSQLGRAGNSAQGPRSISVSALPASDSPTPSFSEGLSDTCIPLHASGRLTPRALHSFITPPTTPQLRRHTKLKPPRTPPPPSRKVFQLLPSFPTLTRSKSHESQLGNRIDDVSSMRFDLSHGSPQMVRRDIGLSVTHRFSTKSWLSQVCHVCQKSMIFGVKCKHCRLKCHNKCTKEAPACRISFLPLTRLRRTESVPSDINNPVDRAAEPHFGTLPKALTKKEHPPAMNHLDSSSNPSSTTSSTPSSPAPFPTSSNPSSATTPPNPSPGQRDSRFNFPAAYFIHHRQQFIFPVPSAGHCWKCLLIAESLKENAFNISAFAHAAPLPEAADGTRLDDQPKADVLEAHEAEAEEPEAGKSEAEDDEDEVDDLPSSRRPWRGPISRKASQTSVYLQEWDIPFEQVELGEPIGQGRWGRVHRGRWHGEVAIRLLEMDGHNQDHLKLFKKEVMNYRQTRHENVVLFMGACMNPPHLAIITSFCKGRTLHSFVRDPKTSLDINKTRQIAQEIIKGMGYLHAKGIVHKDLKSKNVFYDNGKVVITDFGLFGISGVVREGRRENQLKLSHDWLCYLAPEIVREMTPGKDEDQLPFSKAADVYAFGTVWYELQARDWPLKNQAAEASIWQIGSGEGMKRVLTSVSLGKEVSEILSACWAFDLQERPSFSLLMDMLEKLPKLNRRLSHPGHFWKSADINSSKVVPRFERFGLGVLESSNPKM
Kind of assay: Selectivity interaction (Kinase panel (KiNativ target engagement assay in Jurkat cells)) EUB0001635a KSR1. To be noted: at 1 µM. The format is cell-based.

Dual specificity testis-specific protein kinase 1 (Homo sapiens), sequence (Q15569 whole entry, looked up): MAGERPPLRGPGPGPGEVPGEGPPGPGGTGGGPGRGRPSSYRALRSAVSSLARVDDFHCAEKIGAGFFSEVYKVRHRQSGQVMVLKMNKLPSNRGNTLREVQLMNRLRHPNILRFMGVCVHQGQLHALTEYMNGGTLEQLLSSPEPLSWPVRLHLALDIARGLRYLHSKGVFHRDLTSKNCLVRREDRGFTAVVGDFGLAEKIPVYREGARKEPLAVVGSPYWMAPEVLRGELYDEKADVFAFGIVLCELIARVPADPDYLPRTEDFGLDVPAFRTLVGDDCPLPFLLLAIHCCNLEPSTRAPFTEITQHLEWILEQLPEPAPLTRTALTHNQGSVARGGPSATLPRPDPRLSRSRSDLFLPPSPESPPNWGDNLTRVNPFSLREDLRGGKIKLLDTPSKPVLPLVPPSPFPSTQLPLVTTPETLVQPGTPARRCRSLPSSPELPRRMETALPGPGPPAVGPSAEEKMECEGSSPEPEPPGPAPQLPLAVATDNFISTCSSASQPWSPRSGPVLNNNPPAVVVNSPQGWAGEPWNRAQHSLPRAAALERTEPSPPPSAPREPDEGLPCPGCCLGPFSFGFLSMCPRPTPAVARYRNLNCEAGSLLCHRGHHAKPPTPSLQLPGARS
Receptor tyrosine-protein kinase erbB-2, sequence (P04626 whole entry): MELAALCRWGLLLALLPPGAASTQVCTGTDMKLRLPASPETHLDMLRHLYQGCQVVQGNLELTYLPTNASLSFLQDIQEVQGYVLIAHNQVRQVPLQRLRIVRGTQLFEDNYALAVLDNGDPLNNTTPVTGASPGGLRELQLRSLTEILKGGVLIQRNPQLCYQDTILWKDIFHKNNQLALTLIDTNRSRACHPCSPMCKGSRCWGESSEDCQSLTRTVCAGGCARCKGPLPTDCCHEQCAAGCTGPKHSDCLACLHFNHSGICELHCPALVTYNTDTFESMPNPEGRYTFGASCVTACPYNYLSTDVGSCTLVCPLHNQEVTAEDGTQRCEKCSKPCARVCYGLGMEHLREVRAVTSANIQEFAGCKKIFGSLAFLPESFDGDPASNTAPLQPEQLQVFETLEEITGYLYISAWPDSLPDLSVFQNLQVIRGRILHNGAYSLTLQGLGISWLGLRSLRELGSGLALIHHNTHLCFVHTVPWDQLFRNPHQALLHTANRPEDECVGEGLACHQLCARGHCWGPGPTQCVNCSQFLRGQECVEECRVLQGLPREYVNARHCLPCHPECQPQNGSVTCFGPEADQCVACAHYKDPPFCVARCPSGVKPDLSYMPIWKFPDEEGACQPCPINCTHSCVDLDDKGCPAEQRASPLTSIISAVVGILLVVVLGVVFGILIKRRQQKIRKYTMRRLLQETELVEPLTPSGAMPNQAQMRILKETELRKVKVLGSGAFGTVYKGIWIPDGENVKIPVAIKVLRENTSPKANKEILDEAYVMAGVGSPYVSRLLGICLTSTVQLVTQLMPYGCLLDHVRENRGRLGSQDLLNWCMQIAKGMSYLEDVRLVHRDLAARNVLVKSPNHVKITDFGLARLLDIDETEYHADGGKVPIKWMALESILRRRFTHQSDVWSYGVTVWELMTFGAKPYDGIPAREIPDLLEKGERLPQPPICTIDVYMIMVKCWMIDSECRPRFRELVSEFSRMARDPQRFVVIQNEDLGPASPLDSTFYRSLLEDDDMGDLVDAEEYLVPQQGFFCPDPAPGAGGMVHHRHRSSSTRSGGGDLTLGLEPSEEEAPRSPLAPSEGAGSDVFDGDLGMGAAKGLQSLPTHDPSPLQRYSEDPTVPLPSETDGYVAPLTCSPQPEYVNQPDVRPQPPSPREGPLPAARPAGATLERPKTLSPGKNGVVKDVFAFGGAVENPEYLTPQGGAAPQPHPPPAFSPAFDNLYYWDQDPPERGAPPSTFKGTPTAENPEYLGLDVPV
Proto-oncogene tyrosine-protein kinase receptor Ret, sequence (P07949 whole entry): as the sequence (P07949 whole entry V804L) above, with L804V counted along it

Consider `Cn1cc(-n2cnc3c(NCc4nc5cc(Cl)c(Cl)cc5[nH]4)nc(N4CCOCC4)nc32)cn1`, for which the % of inhibition in assay [1] amounted to 2.6%.
Consider `O=C(NOC[C@H](O)CO)c1ccc(F)c(F)c1Nc1ccc(I)cc1F`, for which the % of control in assay [2] was 74%.
Take `CN(C)C/C=C/C(=O)Nc1ccc(C(=O)N2CCCC(Nc3ncc(Cl)c(-c4c[nH]c5ccccc45)n3)C2)cc1` (centres undefined): the % of control in assay [3] stood at 91%.
`CN(C)CCOc1ccc(-c2nc(-c3ccncc3)c(-c3ccc4c(c3)CC/C4=N\O)[nH]2)cc1` returned a % of control in assay [4] of 76%.
`O[C@H]1CC[C@H](Nc2ncc3nc(Nc4c(F)cc(F)cc4F)n([C@H]4CCOC4)c3n2)CC1`: the % of control in assay [5] turned out to be 100%; in [6], 96%; in [7], 100%; in assay [8], 78%.
As for `C=CC(=O)Nc1ccc(C(=O)Nc2[nH]nc3c2CN(C(=O)N[C@H](CN(C)C)c2ccccc2)C3(C)C)cc1`, the % of engagement in assay [9] was -1.6%.
